# Values joined by “and” are separate entries in the source; they are usually repeats but may differ in a detail not shown here. Equal entries are not always repeated. Toxic doses and inconclusive results are not listed.
# Tested on: CD2F1 mice, L1210 leukemia ip, survival T/C
# Experiment: NCI In Vivo Anticancer Drug Screen. Data for tumor model L1210 Leukemia (intraperitoneal) in CD2F1 (CDF1) mice
# Conditions: higher = longer survival
# Summary of the method: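 Mice carrying a transplanted tumor received test compound or vehicle alone. The value is the measurement in the treated group divided by that in the vehicle-treated control group.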
# [1] = endpoint: mean survival time, dose: 100.0 mg/kg/injection, schedule: Q04DX003 (ip), vehicle: saline with Tween-80
# [2] = endpoint: mean survival time, dose: 200.0 mg/kg/injection, schedule: Q04DX003 (ip), vehicle: saline with Tween-80
# [3] = endpoint: mean survival time, dose: 25.0 mg/kg/injection, schedule: Q04DX003 (ip), vehicle: saline with Tween-80
# [4] = endpoint: mean survival time, dose: 50.0 mg/kg/injection, schedule: Q04DX003 (ip), vehicle: saline with Tween-80
# [5] = endpoint: mean survival time, dose: 400.0 mg/kg/injection, schedule: Q04DX003 (ip), vehicle: saline with Tween-80
compound,measurement,setting,value
CC(=O)c1ccc2c3c(ccc([N+](=O)[O-])c13)C(=O)OC2=O,T/C,[1],91 % of control
same,T/C,[2],95 % of control
CCOP(=O)(OCC)C1=C(P(=O)(OCC)OCC)C(F)(F)C(F)(F)C1(F)F,T/C,"endpoint: mean survival time, dose: 75.0 mg/kg/injection, schedule: Q01DX001 (ip), vehicle: other",107 % of control
COc1ccc(C(CC(=O)c2ccccc2)CC(=O)c2ccccc2)cc1,T/C,"endpoint: mean survival time, dose: 25.0 mg/kg/injection, schedule: Q01DX009 (ip), vehicle: saline with Tween-80",94 % of control
same,T/C,[3],101 % of control
same,T/C,"endpoint: mean survival time, dose: 50.0 mg/kg/injection, schedule: Q01DX009 (ip), vehicle: saline with Tween-80",96 % of control
same,T/C,[4],93 % of control
same,T/C,[1],87 % of control
Cc1ccc2c(c1)CCCN2C(=O)c1ccccc1,T/C,"endpoint: mean survival time, dose: 100.0 mg/kg/injection, schedule: Q04DX003 (ip), vehicle: other",89 % of control
same,T/C,"endpoint: mean survival time, dose: 200.0 mg/kg/injection, schedule: Q04DX003 (ip), vehicle: other",92 % of control
same,T/C,"endpoint: mean survival time, dose: 400.0 mg/kg/injection, schedule: Q04DX003 (ip), vehicle: other",94 % of control
O=c1[nH]c(=O)n(C2OC(CO)C(O)C2O)cc1Br (centres undefined),T/C,"endpoint: mean survival time, dose: 100.0 mg/kg/injection, schedule: Q04DX002 (ip), vehicle: saline with Tween-80",109 % of control
same,T/C,"endpoint: mean survival time, dose: 200.0 mg/kg/injection, schedule: Q04DX002 (ip), vehicle: saline with Tween-80",101 % of control
same,T/C,"endpoint: mean survival time, dose: 400.0 mg/kg/injection, schedule: Q04DX002 (ip), vehicle: saline with Tween-80",101 % of control
CCCCn1cnc2c(SSc3ncnc4c3ncn4CCCC)ncnc21,T/C,[1],116 % of control and 106 % of control
same,T/C,[2],113 % of control
same,T/C,"endpoint: mean survival time, dose: 264.0 mg/kg/injection, schedule: Q04DX003 (ip), vehicle: saline with Tween-80",97 % of control
same,T/C,"endpoint: mean survival time, dose: 300.0 mg/kg/injection, schedule: Q04DX003 (ip), vehicle: saline with Tween-80",120 % of control
same,T/C,[5],122 % of control and 111 % of control
same,T/C,"endpoint: mean survival time, dose: 600.0 mg/kg/injection, schedule: Q04DX003 (ip), vehicle: saline with Tween-80",97 % of control
C=C(C)[C@@H]1CC[C@]2(CO)CC[C@]3(C)[C@H](CC[C@@H]4[C@@]5(C)CC[C@H](O)C(C)(C)[C@@H]5CC[C@]43C)[C@@H]12,T/C,"endpoint: mean survival time, dose: 100.0 mg/kg/injection, schedule: Q01DX001 (ip), vehicle: saline",98 % of control
same,T/C,"endpoint: mean survival time, dose: 200.0 mg/kg/injection, schedule: Q01DX001 (ip), vehicle: saline",98 % of control
same,T/C,"endpoint: mean survival time, dose: 400.0 mg/kg/injection, schedule: Q01DX001 (ip), vehicle: saline",98 % of control
CC(=O)OCC1OC([S-])C(OC(C)=O)C(OC(C)=O)C1OC(C)=O.CC[PH+](CC)CC.CC[PH+](CC)CC.[Au].[Au] (centres undefined),T/C,"endpoint: mean survival time, dose: 0.62 mg/kg/injection, schedule: Q01DX009 (ip), vehicle: Klucel (hydroxypropylcellulose) (HPC)",100 % of control and 102 % of control
same,T/C,"endpoint: mean survival time, dose: 1.25 mg/kg/injection, schedule: Q01DX009 (ip), vehicle: Klucel (hydroxypropylcellulose) (HPC)",100 % of control and 104 % of control
same,T/C,"endpoint: mean survival time, dose: 2.5 mg/kg/injection, schedule: Q01DX009 (ip), vehicle: Klucel (hydroxypropylcellulose) (HPC)",96 % of control and 102 % of control
same,T/C,"endpoint: mean survival time, dose: 5.0 mg/kg/injection, schedule: Q01DX009 (ip), vehicle: Klucel (hydroxypropylcellulose) (HPC)",97 % of control and 98 % of control
same,T/C,"endpoint: mean survival time, dose: 10.0 mg/kg/injection, schedule: Q01DX009 (ip), vehicle: Klucel (hydroxypropylcellulose) (HPC)",94 % of control and 97 % of control
COc1ccc(CCl)cc1CCl,T/C,[1],102 % of control
same,T/C,[2],91 % of control
NC(Cc1ccccc1)C(=O)OCN1C(=O)C2C3C=CC(C2C1=O)C1C2C(=O)N(COC(=O)C(N)Cc4ccccc4)C(=O)C2C31 (centres undefined),T/C,"endpoint: median survival time, dose: 21.6 mg/kg/injection, schedule: Q01DX009 (ip), vehicle: water",116 % of control
same,T/C,"endpoint: median survival time, dose: 36.0 mg/kg/injection, schedule: Q01DX009 (ip), vehicle: water",117 % of control
same,T/C,"endpoint: median survival time, dose: 100.0 mg/kg/injection, schedule: Q01DX009 (ip), vehicle: water",188 % of control
CC(C)N1C(=O)[N+](C)(C)N=C1[O-],T/C,"endpoint: mean survival time, dose: 100.0 mg/kg/injection, schedule: Q01DX001 (ip), vehicle: saline with Tween-80",103 % of control
same,T/C,"endpoint: mean survival time, dose: 100.0 mg/kg/injection, schedule: Q01DX009 (ip), vehicle: saline with Tween-80",89 % of control
same,T/C,"endpoint: mean survival time, dose: 200.0 mg/kg/injection, schedule: Q01DX001 (ip), vehicle: saline with Tween-80",101 % of control
same,T/C,"endpoint: mean survival time, dose: 200.0 mg/kg/injection, schedule: Q01DX009 (ip), vehicle: saline with Tween-80",97 % of control
same,T/C,"endpoint: mean survival time, dose: 400.0 mg/kg/injection, schedule: Q01DX001 (ip), vehicle: saline with Tween-80",104 % of control
same,T/C,"endpoint: mean survival time, dose: 400.0 mg/kg/injection, schedule: Q01DX009 (ip), vehicle: saline with Tween-80",101 % of control
O=C1NC(=O)C(c2ccccc2)(C2CCC2)N1 (centres undefined),T/C,[1],95 % of control
same,T/C,[5],88 % of control
CC1C=CC(C(=O)Nc2ccc(Cl)c(Cl)c2)N1C (centres undefined),T/C,[2],92 % of control
C[Si](C)(C)CS(=O)[O-].[C-]#[O+].[C-]#[O+].[Fe+6].[c-]1[c-][c-][cH-][c-]1,T/C,"endpoint: mean survival time, dose: 12.5 mg/kg/injection, schedule: Q04DX002 (ip), vehicle: saline",105 % of control
same,T/C,"endpoint: mean survival time, dose: 25.0 mg/kg/injection, schedule: Q04DX002 (ip), vehicle: saline",94 % of control
same,T/C,"endpoint: mean survival time, dose: 50.0 mg/kg/injection, schedule: Q04DX002 (ip), vehicle: saline",87 % of control
COc1ccccc1OC(=O)Nc1ccc(C)c([N+](=O)[O-])c1,T/C,[3],96 % of control
same,T/C,[4],93 % of control
same,T/C,[1],98 % of control and 103 % of control
same,T/C,[5],97 % of control
